Laboratory results: US9512111B2, “N-sulfonylated tetrahydroquinolines and related bicyclic compounds for inhibition of RORγ activity and the treatment of disease” (Lycera Corporation, priority 2010, dated 2016)

Assays:
RORγ-LBD = target: T1, RORγ-LBD (Homo sapiens, UniProt P51449); assay: RORγ-Ligand Binding Domain TR-FRET Assay; assay type: biochemical; details: benzoxazines, Table 9
T1 construct: HIS-tagged RORγ-LBD was recombinantly expressed in SF9 cells; made in house; host or cells: SF9 cells (baculovirus); unpurified lysate
T1 sequence (P51449 269-508 limits assumed): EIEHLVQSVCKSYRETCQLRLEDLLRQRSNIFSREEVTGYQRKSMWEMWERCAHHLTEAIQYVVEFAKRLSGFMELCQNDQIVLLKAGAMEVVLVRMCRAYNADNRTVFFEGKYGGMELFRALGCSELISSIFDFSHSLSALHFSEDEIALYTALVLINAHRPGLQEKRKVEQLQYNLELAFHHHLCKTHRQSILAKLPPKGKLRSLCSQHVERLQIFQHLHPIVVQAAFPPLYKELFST
Method in brief: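 IC50 derived from the 665 nm/615 nm emission ratio after 4 h to overnight incubation. Mixture: Sf9 lysate with His-tagged LBD (~10 nM final, not purified), SRC1-2 LXXLL biotin peptide at 450 nM, 2 nM europium anti-His antibody, 60 nM APC-streptavidin; buffer 25 mM HEPES pH 7.0, 100 mM NaCl, 0.01% Tween, 0.1% BSA.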

RORγt = target: T2, RORγt (Homo sapiens, UniProt P51449); assay: RORγ Reporter Assay (GAL4-UAS luciferase reporter in HEK293 cells); assay type: cell-based; details: benzoxazines, Table 9; HEK cells
T2 construct: The resulting GAL4-RORγt-LBD fusion construct was placed under the control of a constitutive cytomegalovirus (CMV) promoter; expressed in transfected cells; host or cells: HEK293
T2 sequence (P51449 269-508 limits assumed): T1 sequence (P51449 269-508 limits assumed)
Experimental: Inhibition of RORγt in cells was determined using a GAL4-UAS reporter system in HEK293 cells employing a luciferase readout. The RORγt DNA binding domain (DBD) was replaced with the heterologous yeast GAL4 DBD using standard recombinant DNA methods. The resulting GAL4-RORγt-LBD fusion construct was placed under the control of a constitutive cytomegalovirus (CMV) promoter by cloning it into the CMV-driven mammalian expression vector pcDNA3.1+− (Promega Corporation, Madison, Wis.).
A transcriptional reporter expression construct was used to monitor GAL4-RORγ activity, which contained five copies of the GAL4 binding site enhancer (UAS) controlling expression of a firefly luciferase reporter. This construct, pGL4.31, is commercially available from Promega Corporation, Madison Wis. Both expression constructs were transfected in bulk into HEK-293 cells using standard lipid-based transfection techniques, which allowed the GAL4 RORγ-LBD fusion protein to drive expression of the luciferase reporter. Control transfections were performed with an empty pCDN3.1+ vector.
The next day, cells were plated into 384 well plates, test compound was added, and the plates were incubated overnight. […] Promega firefly assays kits were used to stabilize the luciferase signal, and the intensity of the luciferase signal was measured using an EnVision Multilabel Plate Reader (Perkin Elmer, Waltham, Mass.).
HEK 293 cells are transfected with GAL4-NR construct (CMV:NR-LBD in pcDNA3.1neo) and the pGL4.31 GAL4-luciferase reporter construct (Promega). For a background control, use empty pcDNA3.1neo and pGL4.31. Transfection protocol is for a single T75 flask performed with Minis Trans-It 293 reagent. A 60 μL aliquot of Trans-IT reagent at room temperature is added drop wise to 1.5 mL of Optimem (Invitrogen). The resulting solution is mixed by inversion and incubated for 5-20 minutes at room temperature. This reagent mixture is added to 10 μg of DNA (5 μg of each expression vector used at a concentration of 1 mg/mL). The solution is mixed by inversion and incubated at room temperature for 20 minutes.
While the Trans-IT reagent and DNA are incubating, harvest HEK-293 cells. Remove media from flasks via aspiration and add enough TrypLE Express (stable Trypsin-like reagent, Invitrogen) to cover the bottom of the flask. The mixture is incubated at room temperature until the cells are visibly loose in the flask (approximately 2-5 minutes). Add an equal volume of complete growth media, and then pipette to achieve a single cell suspension. Spin down 1×10^7 cells and re-suspend the cells in 10 mL of complete growth media (DMEM high glucose/10% dialyzed FBS/pen/strep; Invitrogen). The cells and transfection mixture are added to one T75 flask. The contents of the T75 flax are mixed and incubated overnight at 37° C. and 5% CO2.
After 16-24 hours, cells are harvested and plated for test compound screening. Cells may be harvested as described above. Next, cells are counted and an appropriate number of cells are spun down. Then, cells are aspirated and re-suspended in complete growth media at a concentration of 0.5×10^6 cells/mL to provide a cell suspension. Plate 20 μL of the cell suspension into a white, tissue-culture treated 384 well plate. (10,000 cells/well).
A 10 mM stock solution of test compound in dimethylsulfoxide (DMSO) was diluted to 500× the final test concentration in DMSO, then diluted to 5× the final test concentration with complete growth medium to provide the Test Compound Solution. The concentration of DMSO in the Test Compound Solution was […]. A 5 μL aliquot of Test Compound Solution was added to each test well in the 384 well plate previously plated with the cell suspension. Next, plates are spun briefly and incubated overnight at 37° C. and 5% CO2.
After 16-24 hours, the luciferase assay is performed. Plates and luciferase reagent (e.g. One-Glo® or Dual Glo®; Promega, Madison, Wis.) are brought to room temperature.

| SMILES | IC50 (RORγ-LBD) | IC50 (RORγt) |
| --- | --- | --- |
| CCOCC1CN(S(=O)(=O)c2cccc(C#N)c2)c2cc(NC(=O)c3c(F)cccc3F)ccc2O1 (stereo not drawn) [VI-102] | < 15 µM | < 15 µM |
| COc1ccc(S(=O)(=O)N2C[C@H](CO)Oc3cc(F)c(NC(=O)c4c(F)cccc4Cl)cc32)cn1 [VI-46] | < 15 µM | < 15 µM |
| CCOCC1CN(S(=O)(=O)c2ccc(Cl)cc2)c2cc(NC(=O)c3c(Cl)cccc3Cl)ccc2O1 (stereo not drawn) [VI-92] | < 15 µM | < 15 µM |
| Cc1nn(C(F)F)cc1S(=O)(=O)N1C[C@H](C)Oc2ccc(NC(=O)c3c(Cl)cccc3Cl)cc21 [VI-9] | < 15 µM | < 15 µM |
| O=C(Nc1ccc2c(c1)N(S(=O)(=O)c1ccc(F)cc1)C[C@H](CO)O2)c1c(F)cccc1Cl [VI-120] | < 15 µM | < 15 µM |
| C[C@H]1CN(S(=O)(=O)c2ccc(F)cc2)c2cc(NC(=O)c3c(F)cccc3Cl)ccc2O1 [VI-1] | < 15 µM | < 15 µM |
| CCOCC1CN(S(=O)(=O)c2ccc(F)cc2)c2cc(NC(=O)c3c(F)cccc3F)ccc2O1 (stereo not drawn) [VI-112] | < 15 µM | < 15 µM |
| O=C(Nc1ccc2c(c1)N(S(=O)(=O)c1ccc(F)cc1)CC(CC(F)(F)F)O2)c1c(Cl)cccc1C(F)(F)F (stereo not drawn) [VI-15] | < 15 µM | < 15 µM |
| CCN(CC)CC1CN(S(=O)(=O)c2ccc(F)cc2)c2cc(NC(=O)c3c(F)cccc3Cl)ccc2O1 (stereo not drawn) [VI-38] | < 15 µM | < 15 µM |
| CC1(C)CN(S(=O)(=O)c2ccc(F)cc2)c2cc(NC(=O)c3c(F)cccc3C(F)(F)F)ccc2O1 [VI-124] | < 15 µM | < 15 µM |
| COCC1CN(S(=O)(=O)c2ccc(F)c(F)c2)c2cc(NC(=O)c3c(Cl)cccc3Cl)ccc2O1 (stereo not drawn) [VI-70] | < 15 µM | < 15 µM |

Next, values leading:

| IC50 (RORγ-LBD) | IC50 (RORγt) | SMILES |
| --- | --- | --- |
| < 15 µM | < 15 µM | COCC1CN(S(=O)(=O)c2ccc(F)cc2)c2cc(NC(=O)c3c(Cl)cccc3C(F)(F)F)ccc2O1 (stereo not drawn) [VI-104] |
| < 15 µM | < 15 µM | COCC1CN(S(=O)(=O)c2ccc(F)c(F)c2)c2cc(NC(=O)c3c(F)cccc3Cl)ccc2O1 (stereo not drawn) [VI-80] |
| < 15 µM | < 15 µM | O=C(Nc1ccc2c(c1)N(S(=O)(=O)c1ccc(Cl)cc1)C[C@H](CO)O2)c1c(Cl)cccc1Cl [VI-85] |
| < 15 µM | < 15 µM | Cc1cccc(Cl)c1C(=O)Nc1ccc2c(c1)N(S(=O)(=O)c1ccc(F)cc1)C[C@H](CO)O2 [VI-48] |
| < 15 µM | < 15 µM | O=C(Nc1ccc2c(c1)N(S(=O)(=O)c1ccc(F)cc1)C[C@H](CO)O2)c1c(F)cccc1F [VI-114] |
| < 15 µM | < 15 µM | CCOCC1CN(S(=O)(=O)c2ccc(F)c(F)c2)c2cc(NC(=O)c3c(F)cccc3F)ccc2O1 (stereo not drawn) [VI-99] |
| < 15 µM | < 15 µM | O=C(Nc1ccc2c(c1)N(S(=O)(=O)c1ccc(F)cc1)CC(CC(F)(F)F)O2)c1c(Cl)cccc1Cl (stereo not drawn) [VI-13] |
| < 15 µM | < 15 µM | COCC1CN(S(=O)(=O)c2ccc(F)cc2)c2cc(NC(=O)c3c(F)cccc3Cl)c(F)cc2O1 (stereo not drawn) [Compound 12, 2-Chloro-6-fluoro-N-[7-fluoro-4-(4-fluorobenzenesulfonyl)-2-methoxymethyl-3,4-dihydro-2H-benzo[1,4]oxazin-6-yl]benzamide] |
| < 15 µM | < 15 µM | COc1ccc(S(=O)(=O)N2C[C@H](CO)Oc3ccc(NC(=O)c4c(C)cccc4Cl)cc32)cn1 [VI-27] |
| < 15 µM | < 15 µM | O=C(Nc1ccc2c(c1)N(S(=O)(=O)c1ccc(F)c(F)c1)C[C@@H](CO)O2)c1c(F)cccc1Cl [VI-75] |
| < 15 µM | < 15 µM | O=C(Nc1ccc2c(c1)N(S(=O)(=O)c1ccc(F)c(F)c1)C[C@@H](CO)O2)c1c(F)cccc1C(F)(F)F [VI-72] |
| < 15 µM | < 15 µM | COCC1CN(S(=O)(=O)c2ccc(F)c(F)c2)c2cc(NC(=O)c3c(F)cccc3C(F)(F)F)ccc2O1 (stereo not drawn) [VI-79] |
| < 15 µM | < 15 µM | O=C(Nc1ccc2c(c1)N(S(=O)(=O)c1ccc(F)cc1)CC(CC(F)(F)F)O2)c1c(F)cccc1C(F)(F)F (stereo not drawn) [VI-14] |
